The record followed here is patent US20170240570A1, “NOVEL SMALL MOLECULE ANTICANCER AGENTS” (UNIVERSITY OF FLORIDA RESEARCH FOUNDATION, priority 2014, published 2017).

“Also recorded” adds a separate entry of the source.

Format in all cases: cell-based, human
The subject of assay [1] is HER2, EGFR, Akt, Erk, S6, PARP in HCC1954 cells. Briefly: Immunoblot analysis of treated cells.
Description: Immunoblot analysis of HCC1954 cells treated as in 8B.
The next assay concerns HCC1954 cells. Description: Viability in MTT assay. To be noted: 24 h. For orientation: Formazan colour is commonly taken as a measure of viable cells.
Assay [2] relates to MDA-MB-468 breast cancer cells. Briefly: Cell viability / cell killing, photomicrographs of treated cells. As to the method:
(§1) FIG. 2. depicts 2A) Photomicrographs of MDA-MB-468 or BxPC3 cells treated for 24 hours with 25 μM NSC624205 or the vehicle control. 2B) MDA-MB-468 cells were treated for 24 hours with the indicated concentrations of NSC624203, NSC624204, and NSC624205 and cell viability (mass) was measured by crystal violet staining. 2C) Photomicrographs of MDA-MB-468, SKBR3, or MDA-MB-231 cells treated for 24 h with 10 μM NSC624205 or the vehicle control. 2D) Cell proliferation was measured by thymidine incorporation through the treatment of MDAMB-468 and SKBR3 cells for 24 hours with NSC624203, an EGFR/HER2 inhibitor, or a combination of the two compounds. Results are presented as the average of triplicate determinations±S.D. 2E) The indicated cancer cell lines were treated for 24 h with 20 μM NSC624205 or vehicle and cell extracts were analyzed by immunoblot. Actin serves as a loading control.
FIG. 5. depicts 5A) Photomicrographs of MDA-MB-468 cells treated for 24 h with 20 μM of the indicated compounds. 5B) Immunoblot analysis of MDA-MB-468 cells treated as in 5A. 5C) Chemical structures of Disulfide bond Disrupting Agents (DDAs) showing active compounds on the left side with the pharmacophore highlighted in red, along with the generic pharmacophore. […] The exception to this rule is NSC627175/DTDO, which represents a different pharmacophore. 5D) Viability of BT474 or MDA-MB-468 cells treated for 24 h with the indicated drug at the specified concentrations was measured in MTT assays. Assays were carried out in triplicate and results were presented as the average±S.D. 5E) Proliferation of tert-immortalized human mammary epithelial cells (HMEC-tert) and MDA-MB-468, BT474, and SKBR3 breast cancer cells after incubation with the indicated concentrations of RBF3 for 24 h was measured in thymidine incorporation assays as described in FIG. 2D. 5F)-5H) The indicated cell lines were treated with the indicated compounds at 20 μM unless otherwise indicated for 24 h and analyzed by immunoblot.
The sulfur atom in sulfinic acids can act as a nucleophile capable of breaking disulfide bonds. […]

For assay [3], the system named is EGFR, HER2, HER3, Akt, Erk, PARP in MDA-MB-468 cells. Description: Immunoblot analysis of treated cells. The procedure:
FIG. 3. depicts 3A) the analysis of MDA-MB-468 cells treated as indicated for 24 h by immunoblot for levels of EGFR and EGFR phosphorylation. 3B) the analysis of MDA-MB-468 cells treated as indicated for 24 h by immunoblot for PARP cleavage. 3C) MDA-MB-468 cells were either left untreated, or treated with 20 μM NSC624205 for 24 hours. NSC624205-treated cells were then washed and incubated for the indicated periods in the absence of drug. EGFR electrophoretic mobility was analyzed by immunoblot. 3D) MDA-MB-468 cells were pretreated with 25 μM NSC624205 or vehicle for 15 hours and then either left untreated or stimulated for 15 minutes with 20 ng/ml EGF, after which cell extracts were analyzed by immunoblot. 3E) MDA-MB-468 cells were treated as indicated for 24 hours and analyzed by immunoblot.
FIG. 5. depicts 5A) Photomicrographs of MDA-MB-468 cells treated for 24 h with 20 μM of the indicated compounds. 5B) Immunoblot analysis of MDA-MB-468 cells treated as in 5A. […] 5D) Viability of BT474 or MDA-MB-468 cells treated for 24 h with the indicated drug at the specified concentrations was measured in MTT assays. Assays were carried out in triplicate and results were presented as the average±S.D. 5E) Proliferation of tert-immortalized human mammary epithelial cells (HMEC-tert) and MDA-MB-468, BT474, and SKBR3 breast cancer cells after incubation with the indicated concentrations of RBF3 for 24 h was measured in thymidine incorporation assays as described in FIG. 2D. 5F)-5H) The indicated cell lines were treated with the indicated compounds at 20 μM unless otherwise indicated for 24 h and analyzed by immunoblot.
To examine the reversibility of NSC624205 actions, MDA-MB-468 cells were treated for 24 hr with NSC624205 and then the compound was washed out and the cells were allowed to recover for various periods of time. […] To examine whether NSC624205 can suppress cellular responses to EGF, cells were stimulated with EGF either with or without NSC624205 treatment.
Background: A western blot detects proteins with antibodies after separation by electrophoresis.

In a further assay the test system is MDA-MB-468 cells. Description: Cell proliferation by thymidine incorporation. To be noted: 24 hours, same concentration. The procedure:
as §1
(§2) The sulfur atom in sulfinic acids can act as a nucleophile capable of breaking disulfide bonds. Therefore we obtained several sulfinate-containing compounds from the National Cancer Institute's Developmental Therapeutics Program (NCI/DTP) and, as an initial screen, examined their ability to decrease the viability of various human cancer cell lines. […] NSC624205 and two related compounds, NSC624203 and NSC624204, decreased cell viability by 50% in the range of 3.7-33 μM (FIG. 2B). […]
A general note: Dividing cells build labelled thymidine or BrdU into new DNA.

Assay [4] has as its system SKBR3 cells. Briefly: Cell proliferation by thymidine incorporation. The following applies: 24 hours, same concentration. As to the method:
as §1, §2

Assay [5] relates to T47D.Puro and T47D.EGFR cells. Briefly: Thymidine incorporation, vector control versus EGFR overexpressing cells. The following applies: 24 h, increasing concentrations.
In assay [6] the test system is BxPC3 pancreatic cancer cells. Description: Cell viability, photomicrographs of treated cells. To be noted: 25 μM, 24 hours. The procedure: as §1, §2
For assay [7], the system named is MDA-MB-231 breast cancer cell line. Briefly: Cell killing, photomicrographs of treated cells. To be noted: 10 μM, 24 hr. As to the method:
as §1, §2

Assay [8] relates to SKBR3 cells. Description: Cell killing, photomicrographs of treated cells. To be noted: 10 μM, 24 hr. The procedure:
as §1, §2

Assay [9] concerns T47D cells (vector control). Briefly: Cell death, photographs of treated cells. The procedure:
(§3) FIG. 4. depicts 4A) the treatment of vector control or EGFR overexpressing T47D cells with 20 μM NSC624205 or vehicle for 24 hours and then photographed. […] 4B) Cells treated as in 4A) were subjected to immunoblot analysis.

Assay [10] relates to T47D cells with enforced EGFR expression (T47D.EGFR). Description: Cell death, photographs of treated cells. The following applies: 20 μM, 24 hours. As to the method:
as §3

The subject of assay [11] is EGFR, HER2, HER3, Akt, Erk in SKBR3 cells. Briefly: Immunoblot analysis of treated cells. To be noted: 20 μM, 24 h. The procedure:
as §1
FIG. 5. depicts 5A) Photomicrographs of MDA-MB-468 cells treated for 24 h with 20 μM of the indicated compounds. 5B) Immunoblot analysis of MDA-MB-468 cells treated as in 5A. […] 5D) Viability of BT474 or MDA-MB-468 cells treated for 24 h with the indicated drug at the specified concentrations was measured in MTT assays. […] 5F)-5H) The indicated cell lines were treated with the indicated compounds at 20 μM unless otherwise indicated for 24 h and analyzed by immunoblot. […]

In a further assay the test system is Erk in T47D cells. Briefly: Immunoblot analysis of treated cells. To be noted: 20 μM, 24 h. The procedure:
as §1, §2

The subject of assay [12] is EGFR, Akt in EGFR overexpressing T47D cells. Description: Immunoblot analysis of treated cells. The following applies: 20 μM, 24 hours. The procedure: as §3
Where [13] appears, read: 25 μM pretreatment 15 hours, 20 ng/ml EGF 15 minutes.
Where [14] appears, read: 24 h, increasing concentrations.

With `CS(=O)(=O)CCNCc1ccc(-c2ccc3ncnc(Nc4ccc(OCc5cccc(F)c5)c(Cl)c4)c3c2)o1` [Lapatinib], the Akt phosphorylation result in assay [1] (24 h, 20 μM RBF3, 100 nM Rapamycin, 20 μM Lapatinib) is “without affecting”. Besides, in [1] (24 h, 20 μM RBF3, 100 nM Rapamycin, 20 μM Lapatinib (FIG. 8C)), the Erk phosphorylation entry is recorded as “reduced”. In addition, the “response of cell viability to single drug” value in the assay with HCC1954 cells is reported as “slightly more responsive”.

Consider `O=S(O)CCCCSSSCCCCS(=O)O` [NSC333839], for which the cell viability entry in assay [2] (20 μM, 24 h, panel of sulfinate-containing compounds) was “activity similar to NSC624205”. In assay [3] (20 μM, 24 h), the “EGFR and Akt phosphorylation” value is “activity similar to NSC624205”.

Regarding `O=S(O)CCCCSSCC(O)CO` (stereo not drawn) [NSC606968], in assay [3] (20 μM, 24 h), the Akt phosphorylation entry is listed as “weak effect” and the EGFR electrophoretic mobility result is on record as “partial effect”.

In the case of `O=S(O)CCCCSSCC(O)C(O)CSSCCCCS(=O)O` (stereo not drawn) [NSC624203], the “inhibition of proliferation compared with commercial EGFR/HER2 tyrosine kinase inhibitor (Calbiochem #324673)” value with MDA-MB-468 cells and in the assay on SKBR3 cells [4] was “more effectively suppressed” in each case. The “sensitivity of proliferation of EGFR overexpressing T47D cells relative to control cells” value in [5] was “more sensitive”. For the same molecule, in [3] (24 hours), the “decreasing Akt phosphorylation, increasing PARP cleavage, reducing EGFR and overall cellular tyrosine phosphorylation, compared with AG490 or EGFR/HER2 kinase inhibitor” value is on record as “more effective”.

For `O=S(O)CCCCSSCCCCSSCCCCS(=O)O` [NSC624205], the cell killing result in assay [2] (10 μM, 24 hr) was “killed”; in assay [7] it was “little effect”; in the assay on SKBR3 cells [8], “killed”; in [9], “not killed”. The cell viability entry in assay [2] (25 μM, 24 hours) was “lethal”; in [6], “little effect”. Moreover, in assay [10], the cell death result was “Extensive cell death; also recorded: underwent cell death”. Moreover, in [3] (20 μM for 24 hours, then 24 hours post-treatment without drug), the “EGFR electrophoretic mobility after washout (reversibility)” value was “restored to near control levels”. In assay [3] (setting [13]), the “EGFR tyrosine phosphorylation on Tyr845, EGF-induced” value is “decreased”. Also, the “overall EGF-induced cellular tyrosine phosphorylation” value in [3] (setting [13]) is “decreased”. Also, the EGFR electrophoretic mobility result in assay [3] (setting [14]) is “concentration-dependent increase”; in [12], “electrophoretic mobility shift”. Further, the “EGFR phosphorylation (phospho-specific antibody)” value in assay [3] (setting [14]) is “decrease”. Also, the PARP cleavage result in assay [3] (setting [14]) is listed as “concentration-dependent increase”. Further, the results for the Akt phosphorylation entry in [11] and in assay [12] were “inhibiting” and “decreased”, respectively. Moreover, the Erk phosphorylation result is given as “inhibiting” in [11]; “inhibiting” in assay [1] (20 μM NSC624205, 24 h (FIG. 2E)); “inhibiting” in the assay with Erk in T47D cells.
